# Tests used:
# Assay type in all cases: in vivo
# [1] = system: Leptochloa chinensis; test: Test Example 3: herbicidal effect by application to foliage (Wagner pot, water depth 0.1-0.5 cm); settings: Nineteenth Table; application to foliage; application herbicide amount 320 g/ha
# In short: (§1)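 Greenhouse pot test, 25–30 °C, alluvial soil. Sown seedlings grown 14 days then sprayed on leaves and stems with emulsion diluted to target g/ha. Rating at 3 weeks, 0–5 scale (0 ≤5%, 5 ≥90%).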
# [2] = system: Echinochloa crus-galli var. crus-galli; test: as above; settings: Nineteenth Table; application to foliage; application herbicide amount 320 g/ha
# In short: as §1
# [3] = system: Cyperus difformis; test: as above; settings: Nineteenth Table; application to foliage; application herbicide amount 320 g/ha
# In short: as §1
# [4] = system: Galium spurium; test: Test Example 4: herbicidal effect by application to foliage (diluvial soil, plastic box); settings: 320 g/ha; for herbicidal effect, Q (Galium spurium): application to foliage
# In short: (§2)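 Scores run from 0 (herbicidal ratio ≤5%) to 5 (≥90%, almost fully withered) and were assessed three weeks after foliar spraying. Seedlings had been raised for 14 days at 25-30° C in sterilized diluvial soil before treatment, with the emulsion diluted in water to the stated g/ha dose.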
# [5] = system: Avena fatua; test: as above; settings: 320 g/ha; for herbicidal effect, I (Avena fatua): application to foliage
# In short: as §2
# [6] = system: Veronica persica; test: as above; settings: 320 g/ha; for herbicidal effect, R (Veronica persica): application to foliage
# In short: as §2
# [7] = system: Chenopodium album; test: as above; settings: 320 g/ha; for herbicidal effect, O (Chenopodium album): application to foliage
# In short: as §2
# [8] = system: Echinochloa crus-galli var. crus-galli; test: as above; settings: 320 g/ha; for herbicidal effect, H (Echinochloa crus-galli var. crus-galli): application to foliage
# In short: as §2
# [9] = system: Abutilon theophrasti; test: as above; settings: 320 g/ha; for herbicidal effect, M (Abutilon theophrasti): application to foliage
# In short: as §2
# [10] = system: Stellaria media; test: as above; settings: 320 g/ha; for herbicidal effect, P (Stellaria media): application to foliage
# In short: as §2
# [11] = system: Apera spica-venti.; test: as above; settings: 320 g/ha; for herbicidal effect, L (Apera spica-venti.): application to foliage
# In short: as §2
# [12] = system: Digitaria ciliaris; test: as above; settings: 320 g/ha; for herbicidal effect, F (Digitaria ciliaris): application to foliage
# In short: as §2
# [13] = system: Alopecurus myosuroides; test: as above; settings: 320 g/ha; for herbicidal effect, J (Alopecurus myosuroides): application to foliage
# In short: as §2
# [14] = system: Setaria viridis; test: as above; settings: 320 g/ha; for herbicidal effect, G (Setaria viridis): application to foliage
# In short: as §2
# [15] = system: Amaranthus retroflexus; test: as above; settings: 320 g/ha; for herbicidal effect, N (Amaranthus retroflexus): application to foliage
# In short: as §2
# [16] = system: Lolium multiflorum Lam.; test: as above; settings: 320 g/ha; for herbicidal effect, K (Lolium multiflorum Lam.): application to foliage
# In short: as §2
# [17] = system: Triticum aestivum; test: Test Example 4: effect on crop by application to foliage (diluvial soil, plastic box); settings: 320 g/ha; for effect on crop, e (Triticum aestivum): application to foliage
# In short: as §2
# [18] = system: Beta vulgaris ssp. vulgaris; test: as above; settings: 320 g/ha; for effect on crop, f (Beta vulgaris ssp. vulgaris): application to foliage
# In short: as §2
# [19] = system: Glycine max; test: as above; settings: 320 g/ha; for effect on crop, c (Glycine max): application to foliage
# In short: as §2
# [20] = system: Zea mays; test: as above; settings: 320 g/ha; for effect on crop, b (Zea mays): application to foliage
# In short: as §2
# [21] = system: Brassica campestris L.; test: as above; settings: 320 g/ha; for effect on crop, g (Brassica campestris L.): application to foliage
# In short: as §2
# [22] = system: directly sowed Oryza sativa; test: as above; settings: 320 g/ha; for effect on crop, d (directly sowed Oryza sativa): application to foliage
# In short: as §2
Compound,D (herbicidal effect grade) [1],H (herbicidal effect grade) [2],E (herbicidal effect grade) [3],"herbicidal effect, Q (Galium spurium) [4]","herbicidal effect, I (Avena fatua) [5]","herbicidal effect, R (Veronica persica) [6]","herbicidal effect, O (Chenopodium album) [7]","herbicidal effect, H (Echinochloa crus-galli var. crus-galli) [8]","herbicidal effect, M (Abutilon theophrasti) [9]","herbicidal effect, P (Stellaria media) [10]","herbicidal effect, L (Apera spica-venti.) [11]","herbicidal effect, F (Digitaria ciliaris) [12]","herbicidal effect, J (Alopecurus myosuroides) [13]","herbicidal effect, G (Setaria viridis) [14]","herbicidal effect, N (Amaranthus retroflexus) [15]","herbicidal effect, K (Lolium multiflorum Lam.) [16]","effect on crop, e (Triticum aestivum) [17]","effect on crop, f (Beta vulgaris ssp. vulgaris) [18]","effect on crop, c (Glycine max) [19]","effect on crop, b (Zea mays) [20]",other results
CCn1nc2c(C(=O)Nc3nnnn3C)ccc(C(F)(F)F)n2c1=O [6-004],5 (Herbicidal ratio of 90% or more (almost completely withered)),4 (Herbicidal ratio of 70% or more and less than 90%),2 (Herbicidal ratio of 20% or more and less than 40%),4 (Herbicidal ratio of 70% or more and less than 90%),3 (Herbicidal ratio of 40% or more and less than 70%),3 (Herbicidal ratio of 40% or more and less than 70%),5 (Herbicidal ratio of 90% or more (almost completely withered)),5 (Herbicidal ratio of 90% or more (almost completely withered)),5 (Herbicidal ratio of 90% or more (almost completely withered)),4 (Herbicidal ratio of 70% or more and less than 90%),1 (Herbicidal ratio of 5% or more and less than 20%),5 (Herbicidal ratio of 90% or more (almost completely withered)),1 (Herbicidal ratio of 5% or more and less than 20%),4 (Herbicidal ratio of 70% or more and less than 90%),5 (Herbicidal ratio of 90% or more (almost completely withered)),2 (Herbicidal ratio of 20% or more and less than 40%),1 (Herbicidal ratio of 5% or more and less than 20%),2 (Herbicidal ratio of 20% or more and less than 40%),0 (Herbicidal ratio of 5% or less (almost no effect)),0 (Herbicidal ratio of 5% or less (almost no effect)),"effect on crop, g (Brassica campestris L.) [21]: 3 (Herbicidal ratio of 40% or more and less than 70%); effect on crop, d (directly sowed Oryza sativa) [22]: 4 (Herbicidal ratio of 70% or more and less than 90%)"
COCCN(C)c1nnc2c(C(=O)Nc3nnnn3C)ccc(C(F)(F)F)n12 [2-079],5 (Herbicidal ratio of 90% or more (almost completely withered)),5 (Herbicidal ratio of 90% or more (almost completely withered)),5 (Herbicidal ratio of 90% or more (almost completely withered)),4 (Herbicidal ratio of 70% or more and less than 90%),3 (Herbicidal ratio of 40% or more and less than 70%),5 (Herbicidal ratio of 90% or more (almost completely withered)),5 (Herbicidal ratio of 90% or more (almost completely withered)),5 (Herbicidal ratio of 90% or more (almost completely withered)),5 (Herbicidal ratio of 90% or more (almost completely withered)),5 (Herbicidal ratio of 90% or more (almost completely withered)),5 (Herbicidal ratio of 90% or more (almost completely withered)),5 (Herbicidal ratio of 90% or more (almost completely withered)),4 (Herbicidal ratio of 70% or more and less than 90%),5 (Herbicidal ratio of 90% or more (almost completely withered)),5 (Herbicidal ratio of 90% or more (almost completely withered)),2 (Herbicidal ratio of 20% or more and less than 40%),2 (Herbicidal ratio of 20% or more and less than 40%),5 (Herbicidal ratio of 90% or more (almost completely withered)),2 (Herbicidal ratio of 20% or more and less than 40%),5 (Herbicidal ratio of 90% or more (almost completely withered)),"effect on crop, g (Brassica campestris L.) [21]: 5 (Herbicidal ratio of 90% or more (almost completely withered)); effect on crop, d (directly sowed Oryza sativa) [22]: 4 (Herbicidal ratio of 70% or more and less than 90%)"
COc1ccc(Cc2nnc3c(C(=O)Nc4nnnn4C)ccc(C(F)(F)F)n23)cc1 [2-065],5 (Herbicidal ratio of 90% or more (almost completely withered)),5 (Herbicidal ratio of 90% or more (almost completely withered)),5 (Herbicidal ratio of 90% or more (almost completely withered)),,,,,,,,,,,,,,,,,,Q (Galium spurium) herbicidal effect grade ([4]; foliage application): 3 (Herbicidal ratio of 40% or more and less than 70%); I (Avena fatua) herbicidal effect grade ([5]; foliage application): 4 (Herbicidal ratio of 70% or more and less than 90%); R (Veronica persica) herbicidal effect grade ([6]; foliage application): 5 (Herbicidal ratio of 90% or more (almost completely withered)); O (Chenopodium album) herbicidal effect grade ([7]; foliage application): 5 (Herbicidal ratio of 90% or more (almost completely withered)); H (Echinochloa crus-galli var. crus-galli) herbicidal effect grade ([8]; foliage application): 5 (Herbicidal ratio of 90% or more (almost completely withered)); M (Abutilon theophrasti) herbicidal effect grade ([9]; foliage application): 5 (Herbicidal ratio of 90% or more (almost completely withered)); P (Stellaria media) herbicidal effect grade ([10]; foliage application): 5 (Herbicidal ratio of 90% or more (almost completely withered)); L (Apera spica-venti.) herbicidal effect grade ([11]; foliage application): 4 (Herbicidal ratio of 70% or more and less than 90%); F (Digitaria ciliaris) herbicidal effect grade ([12]; foliage application): 5 (Herbicidal ratio of 90% or more (almost completely withered)); J (Alopecurus myosuroides) herbicidal effect grade ([13]; foliage application): 3 (Herbicidal ratio of 40% or more and less than 70%); G (Setaria viridis) herbicidal effect grade ([14]; foliage application): 5 (Herbicidal ratio of 90% or more (almost completely withered)); N (Amaranthus retroflexus) herbicidal effect grade ([15]; foliage application): 5 (Herbicidal ratio of 90% or more (almost completely withered)); K (Lolium multiflorum Lam.) herbicidal effect grade ([16]; foliage application): 3 (Herbicidal ratio of 40% or more and less than 70%); e (Triticum aestivum) effect on crop grade ([17]; foliage application): 3 (Herbicidal ratio of 40% or more and less than 70%); f (Beta vulgaris ssp. vulgaris) effect on crop grade ([18]; foliage application): 5 (Herbicidal ratio of 90% or more (almost completely withered)); c (Glycine max) effect on crop grade ([19]; foliage application): 4 (Herbicidal ratio of 70% or more and less than 90%); b (Zea mays) effect on crop grade ([20]; foliage application): 3 (Herbicidal ratio of 40% or more and less than 70%); g (Brassica campestris L.) effect on crop grade ([21]; foliage application): 4 (Herbicidal ratio of 70% or more and less than 90%); d (directly sowed Oryza sativa) effect on crop grade ([22]; foliage application): 4 (Herbicidal ratio of 70% or more and less than 90%)
